Data from patent US20250326807A1, “CALPROTECTIN BINDING PEPTIDES” (Buehlmann Laboratories AG, priority 2022, published 2025).
Like-named read-outs stand apart in the source and are kept apart here. Ends that are not written are not given here.

Tests used:
[1] = tested on: human recombinant calprotectin; test: Fluorescence polarization affinity measurement of fluorescein-labelled peptides; assay type: binding
Protocol: The reaction mixture was incubated at 30° C. for 1 hr, and the completion of the reaction was assessed by LCMS. The reaction was stopped by addition of HCOOH (200 μL) and the cyclized peptide was lyophilized. The final purification was performed as before with a reversed-phase C18 column (X-bridge peptide BEH C18 5 μm, 300 Å, 10×250 mm, Waters) applying a flow rate of 6 mL/min and an appropriate linear gradient in 40 min. Fractions containing the desired peptide were lyophilized. The purity of the peptides was assessed by analysing around 20 μg of peptide by RP-HPLC (1260 HPLC system, Agilent) using a C18 column (ZORBAX 300SB-C18, 5 μm, 300 Å, 4.6×250 mm, Agilent). Peptides were run at a flow rate of 1 mL min^−1 with a linear gradient of 0-100% of solvent B over 15 min (A: 94.9% H2O, 5% ACN and 0.1% TFA; B: 99.9% ACN and 0.1% TFA). The mass was determined by electrospray ionization mass spectrometry (ESI-MS) in positive ion mode on a single quadrupole liquid chromatography mass spectrometer (LCMS-2020, Shimadzu). In order to measure the affinity of selected and synthesized peptides in fluorescence polarization, calprotectin was serially diluted in 20 mM HEPES, 100 mM NaCl, 2 mM CaCl2, pH 7.5, 1 mM DTT with 0.01% v/v Tween-20. 16 μL of protein were added to 4 μL of the fluorescent peptide (20 nM final concentration) in 96-well microtiter plates (black, half-area). Fluorescence anisotropy was measured on a microwell plate reader (Infinite M200Pro, Tecan), with a filter for excitation at 485 nm and emission at 535 nm. Dissociation constant (Kd) was calculated using the following equation on Prism 5 (GraphPad): […]
were A is anisotropy, Af and Ab are the anisotropy values for free and bound ligand, respectively. [L]T is the concentration of total fluorescent ligand and [P]T the concentration of the protein.
Subsequent fluorescence polarization experiments were performed according to example 1.

Calprotectin [2] = test: Surface plasmon resonance (Biacore 8K) with immobilized Calprotectin; assay type: binding, human; conditions: highest concentration tested (500 nM)
Protocol: In order to complement and validate the results obtained by FP, binding responses and kinetics of peptides with immobilized Calprotectin were analysed by SPR. The experiments were performed using a Biacore™ 8K instrument (GE Healthcare). Calprotectin (at 5 μg/mL) was dissolved in 10 mM acetate buffer (pH 5.0) and immobilized on a CM5 series S chip by standard amine coupling method in running buffer (10 mM HEPES pH 7.4, 150 mM NaCl, 2 mM CaCl2, and 0.005% v/v Tween-20) at 25° C. Typical immobilization levels were 3000 resonance units (RUs). Reference cell was treated in the same way but without the injection of protein. A single concentration for each peptide (500 nM) was injected in running buffer (10 mM HEPES pH 7.4, 150 mM NaCl, 2 mM CaCl2, 0.005% v/v Tween-20 and 0.5% v/v DMSO) to measure the binding level. For the measurement of binding kinetics and dissociation constants, five serial dilutions (3-fold) of peptides were prepared in running buffer (with 0.5% DMSO) and analysed in single cycle kinetics mode with the contact and dissociation times of 90 s and 120 s, respectively.
The structure-activity relationship (SAR) analysis of Peptide 3 was assessed by synthesizing a large number of variants of Peptide 3 in which only one amino acid was altered at a time and the binding affinity was measured by surface plasmon resonance (SPR) and fluorescence polarization (FP).

Calprotectin [3] = target: T1, Calprotectin (Homo sapiens, UniProt P05109+P06702); test: Sandwich ELISA with biotinylated calprotectin binding peptide and Strep-HRP; conditions: incubation times of 60 minutes
T1 sequence (P05109 1-93): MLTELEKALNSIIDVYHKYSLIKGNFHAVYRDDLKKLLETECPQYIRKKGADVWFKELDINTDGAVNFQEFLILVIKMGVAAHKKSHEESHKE
T1 sequence (P06702 1-114): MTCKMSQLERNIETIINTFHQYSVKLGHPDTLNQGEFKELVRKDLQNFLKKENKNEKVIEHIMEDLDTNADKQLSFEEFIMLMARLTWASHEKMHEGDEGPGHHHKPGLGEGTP
Protocol: The wells of 96 well Immulon 4 HBX-Extra High Binding plates (Thermo Fisher Scientific) were coated by overnight incubation at 4° C. with 80 μL of a 0.5 μg/mL solution of anti-calprotectin rabbit polyclonal antibody in Na2HCO3 (0.2 M, pH 9.4). The plates were rinsed four times with 200 μL of washing buffer (25 mM Tris, 150 mM NaCl, 2 mM CaCl2, PH 7.4, with 0.05% v/v Tween-20) per well. Then, all the wells were blocked by incubation with 300 μL of blocking buffer (25 mM Tris, 150 mM NaCl, pH 7.4, with 0.05% v/v Tween-20 and 3% w/v BSA) for 1 h at room temperature with shaking. After this time, the blocking buffer was removed and 80 μL of calprotectin was added in dilution buffer (wash buffer with 1% w/v BSA) for 1h at room temperature with shaking. The wells were washed 4 times with washing buffer. […] The solution was removed and the wells were washed 6times with washing buffer. 80 μL of TMB substrate (ready to use solution, SigmaAldrich) were added for 30 minutes and the reaction was stopped with 40 μL of sulfuric acid (2 M). The absorbance was read at 450 nm in a microwell plate reader (Infinite M200Pro, Tecan).

| Substance | affinity to recombinant calprotectin (in words) [1] | further results |
| --- | --- | --- |
| ACRTCPLFTCPSCG (not fully specified; cyclised or stapled) | excellent binding affinity |  |
| RCPECVAFPMFQCHWYCG [peptide 3] | excellent binding affinity | SPR signal change (Calprotectin [2]): ~40 response units |
| SCQCPWDLFSQHSLSDCCD (cyclised or stapled) | excellent binding affinity |  |
| RSPESVAFPMFQSHWYSG [linear peptide 3, fully linear peptide comprising only serines instead of cysteines] |  | affinity to recombinant calprotectin (in words) ([1]; listed as RSPESVAFPMFQSHWYSG): excellent binding affinity; affinity to recombinant calprotectin (in words) ([1]; listed as fully linear peptide): comparable affinities |
| CTQSPCPLYDSHQCSCK (cyclised or stapled) | excellent binding affinity |  |
| WCTQSPCPLYDSHQCSCK (not fully specified; cyclised or stapled) | excellent binding affinity |  |
| CQCPWDLFSQHSLSDCCD (cyclised or stapled) | excellent binding affinity |  |
| GCDLAHQPCPLYKCTKCP (cyclised or stapled) | excellent binding affinity |  |
| VCQQTASRCPVWECQRCP (not fully specified; cyclised or stapled) | excellent binding affinity |  |
| TCPLNRTQCPLYACTTCP (not fully specified; cyclised or stapled) | excellent binding affinity |  |
| Strep-HRP biotinylated peptide complex: linear peptide 3-biotin pre-mixed with streptavidin conjugated horse radish peroxidase (RSPESVAFPMFQSHWYSG; also: biotin, end not given here, non-covalent complex with streptavidin-HRP) |  | detectable calprotectin concentration (Calprotectin [3]): below 5 nM |
| VCPCPLFRAHGCSRFSCQ (not fully specified; cyclised or stapled) | excellent binding affinity |  |
